# From patent US9968610B2, “Pyrrolopyrimidine derivatives as NR2B NMDA receptor antagonists” (Rugen Holdings (Cayman) Limited, priority 2014, dated 2018)
# System: Rats
# Test: Electroconvulsive threshold (ECT) test
# Format: in vivo, rat
# Settings: p.o. 60 minutes before ECS, theophylline 128 mg/kg, diazepam 16 mg/kg
row,SMILES,pro- or anticonvulsant activity (electroconvulsive threshold)
1,CN1C(=O)CN=C(c2ccccc2)c2cc(Cl)ccc21 [diazepam],expected pro- and anticonvulsant activities
2,"Cn1c(=O)c2[nH]cnc2n(C)c1=O [theophylline, Theophylline]",expected pro- and anticonvulsant activities
